Our source for the GI50 and TGI values is PubChem BioAssay (NCI).

Each structure is given as a SMILES string.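 Compound exposure: 48 hours, 5 concentrations, 96-well plates. GI50 = concentration required for 50% inhibition of growth. Definition used: TGI = concentration required for complete inhibition of growth.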

Test systems include HS 578T breast; T-47D breast; MCF7 breast; DU-145 prostate; BT-549 breast; MDA-MB-231 breast.
Assay in all cases: NCI-60 cell line screen, 48 h

Regarding `C=CCn1c(C)nc2cc(Nc3nc(Nc4ccc5nc(C)n(CC=C)c5c4)c4ccccc4n3)ccc21`, the GI50 in the assay with HS 578T breast was 2.02 µM; in the assay on T-47D breast, 0.28 µM; in the assay with MCF7 breast, 0.224 µM; with DU-145 prostate it was 0.389 µM. The TGI in the assay with HS 578T breast came to 5.22 µM; in the assay with T-47D breast, 0.909 µM; in the assay with MCF7 breast, 0.554 µM; in the assay with DU-145 prostate, 1.34 µM.

`CCOc1ccc(/C=C/C(=O)c2ccccc2)cc1`: the GI50 in the assay on BT-549 breast is 26.4 µM; in the assay on HS 578T breast it was 20.4 µM; in the assay with T-47D breast, 14.2 µM; with MCF7 breast, 4.12 µM; with DU-145 prostate, 3.95 µM; in the assay on MDA-MB-231 breast, 26 µM. Moreover, the TGI in the assay with BT-549 breast worked out at 62 µM; in the assay on HS 578T breast, 56.3 µM; in the assay on T-47D breast, 48.7 µM; with MCF7 breast, 21 µM; with DU-145 prostate it was 14.9 µM; with MDA-MB-231 breast, 72.8 µM.

In the case of `COc1ccc2c(c1)sc1nc(-c3ccccc3)c(-c3ccsc3)n12`, the GI50 in the assay on BT-549 breast is 6.56 µM; in the assay with HS 578T breast, more than 100 µM; in the assay with T-47D breast, 6.27 µM; with MCF7 breast it was 3.78 µM; with DU-145 prostate, 3.45 µM; with MDA-MB-231 breast, 5.46 µM. In addition, the TGI with BT-549 breast, with HS 578T breast, with T-47D breast, in the assay with MCF7 breast, in the assay on DU-145 prostate and in the assay with MDA-MB-231 breast was more than 100 µM throughout.

Consider `Nc1c(C(=O)c2ccccc2)sc2nc(-c3cccs3)ccc12`, for which the GI50 with BT-549 breast is 0.332 µM; with HS 578T breast, 0.474 µM; in the assay with T-47D breast, 0.335 µM; with MCF7 breast, 0.0878 µM; with DU-145 prostate it was 0.299 µM; in the assay on MDA-MB-231 breast, 1.23 µM. The TGI was 11.6 µM in the assay with BT-549 breast; 12.7 µM in the assay with HS 578T breast; 12.2 µM in the assay with T-47D breast; 4.6 µM in the assay with MCF7 breast; 10 µM in the assay on DU-145 prostate; 5.7 µM with MDA-MB-231 breast.

As for `Cc1ccc(C(=O)c2oc3ccc4c(C)cc(=O)oc4c3c2C)cc1`, the GI50 in the assay on BT-549 breast is 45.6 µM; in the assay with HS 578T breast, 19.4 µM; in the assay with T-47D breast it was 50.1 µM; in the assay on MCF7 breast, 5.95 µM; in the assay on DU-145 prostate it was 9.7 µM; in the assay with MDA-MB-231 breast it was 11.1 µM. In addition, the TGI in the assay with BT-549 breast, in the assay on HS 578T breast, in the assay with T-47D breast, in the assay on MCF7 breast, with DU-145 prostate and in the assay with MDA-MB-231 breast was more than 100 µM throughout.

Turning to `CC[N+](CCCCCCCCCC[N+](CC)(c1ccccn1)c1ccccn1)(c1ccccn1)c1ccccn1`, the GI50 was 0.973 µM in the assay on BT-549 breast; 0.295 µM with T-47D breast; 0.437 µM in the assay on MCF7 breast; 0.858 µM with DU-145 prostate; 2.24 µM in the assay with MDA-MB-231 breast. Further, the TGI in the assay with BT-549 breast was determined as 88.9 µM; with T-47D breast, 1.7 µM; in the assay with MCF7 breast it was 4.26 µM; in the assay on DU-145 prostate, 12.4 µM; with MDA-MB-231 breast, 13.8 µM.

Consider `CC(C)c1ccc(Cc2cnc(NC(=O)c3cc(Br)cs3)s2)cc1`, for which the GI50 in the assay with BT-549 breast was 3.81 µM; in the assay on HS 578T breast, 2.48 µM; in the assay with T-47D breast, 4.27 µM; in the assay with MCF7 breast it was 1.6 µM; in the assay with DU-145 prostate it was 3.67 µM; with MDA-MB-231 breast it was 3.09 µM. For the same compound, the TGI in the assay on BT-549 breast was more than 100 µM; in the assay with HS 578T breast, 58.2 µM; in the assay on T-47D breast, more than 100 µM; in the assay with MCF7 breast, more than 100 µM; in the assay with DU-145 prostate, more than 100 µM; in the assay with MDA-MB-231 breast, 19.4 µM.

In the case of `C=CC(=O)N1CCCC(n2nc(-c3ccc(Oc4ccccc4)cc3)c3c(N)ncnc32)C1` (stereo unspecified), the GI50 is 5.85 µM in the assay on BT-549 breast; 7.66 µM in the assay with HS 578T breast; 2.14 µM in the assay with T-47D breast; 7.88 µM with MCF7 breast; 1.89 µM with DU-145 prostate; 8.42 µM in the assay on MDA-MB-231 breast. The TGI is 18.5 µM in the assay with BT-549 breast; 45.7 µM in the assay with HS 578T breast; 18.6 µM in the assay on T-47D breast; 23.9 µM with MCF7 breast; 17.4 µM in the assay on DU-145 prostate; 23.6 µM in the assay with MDA-MB-231 breast.

For `O=c1cc(-c2ccccc2)[nH]c2cccc(S)c12`, the TGI in the assay on BT-549 breast, in the assay with HS 578T breast, in the assay with T-47D breast, in the assay with MCF7 breast and in the assay with DU-145 prostate was more than 100 µM throughout.

`O=C(Nc1ccc(Cl)cc1)Nc1ccc(Cl)c(Cl)c1`: the GI50 with HS 578T breast was 4.58 µM; in the assay with T-47D breast, 3.05 µM; with MCF7 breast, 2.27 µM; with DU-145 prostate, 4.08 µM; in the assay on MDA-MB-231 breast, 2.34 µM. Besides, the TGI in the assay on HS 578T breast is 85 µM; with T-47D breast, 30.6 µM; in the assay with MCF7 breast, 8.9 µM; in the assay with DU-145 prostate, more than 100 µM; in the assay with MDA-MB-231 breast, 7.65 µM.

Take `Oc1ccc(Br)cc1Sc1cc(Br)ccc1O`: the GI50 was 8.46 µM in the assay with BT-549 breast; 4.28 µM with HS 578T breast; 4.36 µM with T-47D breast; 11.2 µM with MCF7 breast; 11.7 µM with DU-145 prostate; 6.58 µM with MDA-MB-231 breast. Further, the TGI in the assay with BT-549 breast stood at 23 µM; with HS 578T breast, 25.8 µM; in the assay on T-47D breast, 17.7 µM; with MCF7 breast, 30 µM; with DU-145 prostate, 28.4 µM; with MDA-MB-231 breast, 23.2 µM.

On to `CC1(C)C=CC[C@]2(C)[C@H]3CC[C@@H]4[C@H]5[C@H](C(=O)/C=C/c6cccnc6)CC[C@]5(CO)CC[C@@]4(C)[C@]3(C)CC[C@@H]12`, for which the results for the GI50 in the assay with HS 578T breast, in the assay on DU-145 prostate and in the assay on MDA-MB-231 breast were 1.51 µM, 1.36 µM and 1.27 µM, respectively. In addition, the TGI in the assay with HS 578T breast turned out to be 3.89 µM; in the assay with DU-145 prostate, 2.69 µM; in the assay with MDA-MB-231 breast, 2.67 µM.

For the compound `CC(=O)NC1=N/C(=C/c2cc([N+](=O)[O-])ccc2O)CN1C`, the TGI in the assay on BT-549 breast, with T-47D breast, in the assay with MCF7 breast, in the assay on DU-145 prostate and in the assay with MDA-MB-231 breast was more than 100 µM throughout.

Regarding `COc1cc(-c2nc3ccc(C)cc3[nH]2)ccc1OCC(=O)N=Nc1c(O)[nH]c2ccccc12`, the GI50 with BT-549 breast was 2.26 µM; in the assay with HS 578T breast it was 2 µM; in the assay with DU-145 prostate, 2.05 µM; in the assay with MDA-MB-231 breast, 1.64 µM. Besides, the TGI in the assay on BT-549 breast was 6.56 µM; in the assay on HS 578T breast, 4.77 µM; in the assay with DU-145 prostate, 4.39 µM; in the assay on MDA-MB-231 breast, 3.1 µM.
